Results as given in patent publication US5834453A, “Methods for the manufacture and use of antimicrobial sterol conjugates” (Lehigh University, priority 1997, dated 1998).
Values after ≈ are worked out from the molar mass of the structure shown. “Also recorded” adds a separate entry of the source. Like-named read-outs stand apart in the source and are kept apart here.

Assays:
[1] = Hemolytic activity, minimal hemolytic concentration (MHC); assay type: cell-based, sheep; settings: sheep, red blood cells;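 on MCC: MCC here is the minimal hemolytic concentration (MHC)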
Experimental: (§1) Hemolytic activity of the squalamine mimics according to the present invention were also studied by incubating sheep red blood cells for 24 hours at 37° C. in saline (final concentration of 0.5%) with or without respective concentrations of the squalamine mimics. The minimal hemolytic concentration (MHC) was determined as the lowest concentration of a mimic that raised visible hemolysis.

S. aureus (25923) = assay: MIC, micro-broth dilution; assay type: cell-based; settings: Staphylococcus aureus, 35° C., 24 hours, read-out: ANTIMICROBIAL ACTIVITY (MIC)
Experimental: (§2) The antimicrobial activity of the compounds according to the present invention were compared with the results obtained for squalamine as reported in Proc. Nat. Acad. Sci. USA 90:1354 (1993), supra, the disclosure of which is incorporated in toto herein. The data reported in the following table is the minimum inhibitory concentration (MIC) required for complete inhibition of microbial growth. The MIC was determined utilizing known micro-broth dilution methods in which inocula of 10^6 /ml of the test organism were incubated in 0.5× trypticase soy broth at 35° C. for 24 hours. MIC's were also tested under various pH conditions, with calcium chloride or magnesium chloride, or with immobilized horse serum.
(§3) The numbers in parentheses contained in the table correspond to accession numbers with the American Type Culture Collection (reference strains were either obtained from the American Type Culture Collection or from the Microbiology Laboratory at Memorial Sloan-Kettering Cancer Center; Bacterial strains were maintained on Columbia 5% sheep blood agar plates, and fungi were maintained on Sabouraud Dextrose agar plates).

C. albicans (90028) = assay: MIC, micro-broth dilution; assay type: cell-based; settings: Candida albicans, 35° C., 24 hours, read-out: ANTIMICROBIAL ACTIVITY (MIC)
Experimental: as §2, §3

P. aeruginosa (2853) = assay: MIC, micro-broth dilution; assay type: cell-based; settings: Pseudomonas aeruginosa, 24 h, read-out: ANTIMICROBIAL ACTIVITY (MIC)
Experimental: as §2, §3

A. fumigatus (H1120) = assay: MIC, micro-broth dilution; assay type: cell-based; settings: Aspergillus fumigatus, 35° C., 24 hours, read-out: ANTIMICROBIAL ACTIVITY (MIC)
Experimental: as §2, §3

P. aeruginosa (10145) = assay: MIC, micro-broth dilution; assay type: cell-based; settings: Pseudomonas aeruginosa, 35° C., 24 hours, read-out: ANTIMICROBIAL ACTIVITY (MIC)
Experimental: as §2, §3

S. pneumoniae (6305) = assay: MIC, micro-broth dilution; assay type: cell-based; settings: Streptococcus pneumoniae, 35° C., 24 hours, read-out: ANTIMICROBIAL ACTIVITY (MIC)
Experimental: as §2, §3

E. coli (25922) = assay: MIC, micro-broth dilution; assay type: cell-based; settings: Escherichia coli, 35° C., 24 hours, read-out: ANTIMICROBIAL ACTIVITY (MIC)
Experimental: as §2, §3

S. agalactiae (13813) = assay: MIC, micro-broth dilution; assay type: cell-based; settings: Streptococcus agalactiae, 35° C., 24 hours, read-out: ANTIMICROBIAL ACTIVITY (MIC)
Experimental: as §2, §3

A. fumigatus (H29709) = assay: MIC, micro-broth dilution; assay type: cell-based; settings: Aspergillus fumigatus, 35° C., 24 hours, read-out: ANTIMICROBIAL ACTIVITY (MIC)
Experimental: as §2, §3

K. pneumoniae (13883) = assay: MIC, micro-broth dilution; assay type: cell-based; settings: Klebsiella pneumoniae, read-out: ANTIMICROBIAL ACTIVITY (MIC)
Experimental: as §2, §3

S. aureus (H20809) = assay: MIC, micro-broth dilution; assay type: cell-based; settings: Staphylococcus aureus, 24 h, read-out: ANTIMICROBIAL ACTIVITY (MIC)
Experimental: as §2, §3

C. neoformans (90012) = assay: MIC, micro-broth dilution; assay type: cell-based; settings: Cryptococcus neoformans, 24 h, read-out: ANTIMICROBIAL ACTIVITY (MIC)
Experimental: as §2, §3

S. pyrogenes (19615) = assay: MIC, micro-broth dilution; assay type: cell-based; settings: 24 h, read-out: ANTIMICROBIAL ACTIVITY (MIC)
Experimental: as §2, §3

E. faecium (T6480-9) = assay: MIC, micro-broth dilution; assay type: cell-based; settings: Enterococcus faecium, 35° C., 24 hours, read-out: ANTIMICROBIAL ACTIVITY (MIC)
Experimental: as §2, §3

C. neoformans (M68979) = assay: MIC, micro-broth dilution; assay type: cell-based; settings: Cryptococcus neoformans, 24 h, read-out: ANTIMICROBIAL ACTIVITY (MIC)
Experimental: as §2, §3

P. vulgaris (13315) = assay: MIC, micro-broth dilution; assay type: cell-based; settings: Proteus vulgaris, 35° C., 24 hours, read-out: ANTIMICROBIAL ACTIVITY (MIC)
Experimental: as §2, §3

S. marcescens (13880) = assay: MIC, micro-broth dilution; assay type: cell-based; settings: for MIC: Serratia marcescens, 24 h, read-out: ANTIMICROBIAL ACTIVITY (MIC)
Experimental: as §2, §3

S. aureus (29213) = assay: MIC, micro-broth dilution; assay type: cell-based; settings: Staphylococcus aureus, 24 h, read-out: ANTIMICROBIAL ACTIVITY (MIC)
Experimental: as §2, §3

E. faecalis (29212) = assay: MIC, micro-broth dilution; assay type: cell-based; settings: Enterococcus faecalis, 35° C., 24 hours, read-out: ANTIMICROBIAL ACTIVITY (MIC)
Experimental: as §2, §3

E. cloacae (13047) = assay: MIC, micro-broth dilution; assay type: cell-based; settings: Enterobacter cloacae, 35° C., 24 hours, read-out: ANTIMICROBIAL ACTIVITY (MIC)
Experimental: as §2, §3

S. epidermidis (12228) = assay: MIC, micro-broth dilution; assay type: cell-based; settings: Staphylococcus epidermidis, 35° C., 24 hours, read-out: ANTIMICROBIAL ACTIVITY (MIC)
Experimental: as §2, §3

[2] = tested on: various groups of microorganisms; assay: Antimicrobial activity (MIC), all microorganisms tested; assay type: cell-based
Experimental: as §2, §3

sheep red blood cells = assay: Hemolytic activity, minimal hemolytic concentration (MHC); assay type: cell-based;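 on MCC: MCC here is the minimal hemolytic concentration (MHC)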
Experimental: as §1

Compound	MCC at 24 h [1] [µg/mL]	MIC (S. aureus (25923)) [µg/mL]	MIC (C. albicans (90028)) [µg/mL]	MIC (P. aeruginosa (2853)) [µg/mL]	MIC (A. fumigatus (H1120)) [µg/mL]	MIC (P. aeruginosa (10145)) [µg/mL]	MIC (S. pneumoniae (6305)) [µg/mL]	MIC (E. coli (25922)) [µg/mL]	MIC (S. agalactiae (13813)) [µg/mL]	MIC (A. fumigatus (H29709)) [µg/mL]	MIC (S. aureus (H20809)) [µg/mL]	MIC (C. neoformans (90012)) [µg/mL]	MIC (S. pyrogenes (19615)) [µg/mL]	MIC (E. faecium (T6480-9)) [µg/mL]	MIC (C. neoformans (M68979)) [µg/mL]	MIC (P. vulgaris (13315)) [µg/mL]	MIC (S. marcescens (13880)) [µg/mL]	MIC (S. aureus (29213)) [µg/mL]	MIC (E. faecalis (29212)) [µg/mL]	MIC (E. cloacae (13047)) [µg/mL]	also measured
C[C@H](CCC(=O)NCCCNCCCCNCCCN)[C@H]1CC[C@H]2[C@@H]3CC[C@@H]4CCCC[C@]4(C)[C@H]3CC[C@]12C [SM-19]	6.25	3.13 (≈ 5.74 µM)	3.13 (≈ 5.74 µM)	12.5 (≈ 22.9 µM)	3.13 (≈ 5.74 µM)	> 100	0.78 (≈ 1.43 µM)	3.13 (≈ 5.74 µM)	3.13 (≈ 5.74 µM)	3.13 (≈ 5.74 µM)	3.13 (≈ 5.74 µM)	0.78 (≈ 1.43 µM)	3.13 (≈ 5.74 µM)	3.13 (≈ 5.74 µM)	0.78 (≈ 1.43 µM)	> 100	> 100	3.13 (≈ 5.74 µM)	6.25 (≈ 11.5 µM)	> 100	MIC (K. pneumoniae (13883); 24 h): 6.25 µg/mL (≈ 11.5 µM); MIC (S. epidermidis (12228)): 1.56 µg/mL (≈ 2.86 µM); antimicrobial activity (in words) [2]: highly active
C[C@H](CCC(=O)NCCCNCCCCNCCCN)[C@H]1CC[C@H]2[C@@H]3C[C@H](O)[C@@H]4C[C@H](O)CC[C@]4(C)[C@H]3CC[C@]12C [SM-28]	> 100	6.25 (≈ 10.8 µM)	6.25 (≈ 10.8 µM)	25 (≈ 43.3 µM)	25 (≈ 43.3 µM)	25 (≈ 43.3 µM)	50 (≈ 86.7 µM)	50 (≈ 86.7 µM)	12.5 (≈ 21.7 µM)	25 (≈ 43.3 µM)	6.25 (≈ 10.8 µM)	3.13 (≈ 5.43 µM)	1.56 (≈ 2.7 µM)	50 (≈ 86.7 µM)	3.13 (≈ 5.43 µM)	50 (≈ 86.7 µM)	> 100	6.25 (≈ 10.8 µM)	50 (≈ 86.7 µM)	> 100	MIC (K. pneumoniae (13883); 24 h): > 100 µg/mL; MIC (S. epidermidis (12228)): 3.13 µg/mL (≈ 5.43 µM); antimicrobial activity (in words) [2]: lesser activity
C[C@H](CCC(=O)NCCCNCCCCNCCCN)[C@H]1CC[C@H]2[C@@H]3[C@H](O)C[C@@H]4C[C@H](O)CC[C@]4(C)[C@H]3CC[C@]12C [SM-34]	25	0.78 (≈ 1.35 µM)	3.13 (≈ 5.43 µM)	12.5 (≈ 21.7 µM)	12.5 (≈ 21.7 µM)	25 (≈ 43.3 µM)	3.13 (≈ 5.43 µM)	3.13 (≈ 5.43 µM)	1.56 (≈ 2.7 µM)	12.5 (≈ 21.7 µM)	1.56 (≈ 2.7 µM)	0.78 (≈ 1.35 µM)	0.78 (≈ 1.35 µM)	6.25 (≈ 10.8 µM)	3.13 (≈ 5.43 µM)	12.5 (≈ 21.7 µM)	12.5 (≈ 21.7 µM)	1.56 (≈ 2.7 µM)	3.13 (≈ 5.43 µM)	12.5 (≈ 21.7 µM)	hemolytic activity (in words) (sheep red blood cells): unwanted hemolytic activity; MIC (K. pneumoniae (13883); K. pneumoniae (13883), 35° C., 24 hours): 8.25 µg/mL (≈ 14.3 µM); activity against S. marcescens (S. marcescens (13880); in words): found even against S. marcescens; also recorded: effective against S. marcescens; MIC (S. epidermidis (12228)): 0.78 µg/mL (≈ 1.35 µM); antimicrobial activity (in words) [2]: highly active
